Results on 5 molecules are retold here after patent publication US20230114728A1 (Venatorx Pharmaceuticals, Inc., priority 2019, published 2023).

Common to all, as to type: cell-based
One experiment has as its system A. baumannii ATCC 19606. The experiment is described as follows: Broth microdilution MIC in CAMHB. Particulars: Acinetobacter baumannii, ATCC19606; MHB; read-out: Minimum Inhibitory Concentration, A. baumannii ATCC 19606. A digest of the protocol: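 Colonies from cation-adjusted Mueller Hinton agar are grown in broth (3-5 h, 37° C), adjusted by OD600, and added at 2-8×10^5 CFU/mL to 2-fold compound dilutions. After 16-20 h at 37° C, the lowest concentration without growth is taken as MIC.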

Another experiment has as its system E. coli 901C. Kind of experiment: Broth microdilution MIC in CAMHB. Particulars: Escherichia coli; E. coli 901C (hyper-permeable); MHB; read-out: Minimum Inhibitory Concentration, E. coli 901C. The essentials: (§1)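 CLSI microdilution; CAMHB; inoculum 2-8×10^5 CFU/mL from 3-5 h 37° C culture; 2-fold compound series; 16-20 h, 37° C; MIC = lowest well without visible growth.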

The subject of experiment [1] is K. pneumoniae UMM producing SHV-5 and KPC-2. The experiment is described as follows: Broth microdilution MIC in CAMHB. As to conditions: Klebsiella pneumoniae, read-out: Minimum Inhibitory Concentration, K. pneumoniae UMM. The essentials: as §1
The subject of experiment [2] is P. aeruginosa (ΔmexAB-oprM). Kind of experiment: Broth microdilution MIC in CAMHB. Particulars: Pseudomonas aeruginosa, read-out: Minimum Inhibitory Concentration, P. aeruginosa ΔmexAB-OprM. A digest of the protocol: as §1
For another experiment, the system named is P. aeruginosa ATCC 35151. The experiment is described as follows: Broth microdilution MIC in CAMHB. As to conditions: Pseudomonas aeruginosa, ATCC35151; MHB; hyper-permeable strain; read-out: Minimum Inhibitory Concentration, P. aeruginosa ATCC 35151. The essentials: as §1
Experiment [3] relates to N. gonorrhoeae ATCC 49226. The experiment is described as follows: Liquid broth MIC in Fastidious broth. As to conditions: Neisseria gonorrhoeae, ATCC49226; N. gonorrhoeae ATCC 49226; Fastidious broth; read-out: Minimum Inhibitory Concentration, ATCC 49226. The essentials:
(§2)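 Colonies were swabbed from chocolate agar after 24 h growth and standardised by optical density at 600 nm. Compounds were serially diluted twofold in Fastidious broth, and bacteria added to give 5×10^5 CFU/mL. After about 24 h at 36 °C in 5% CO2, the lowest concentration allowing under 10% growth was taken as MIC.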

For the next experiment, the system named is N. gonorrhoeae FA1090. Kind of experiment: Liquid broth MIC in Fastidious broth. As to conditions: Neisseria gonorrhoeae; N. gonorrhoeae FA1090; Fastidious broth; read-out: Minimum Inhibitory Concentration, FA1090. The essentials:
as §2

Another experiment deals with N. gonorrhoeae H041. Kind of experiment: Liquid broth MIC in Fastidious broth. As to conditions: Neisseria gonorrhoeae, H041, read-out: Minimum Inhibitory Concentration, H041. A digest of the protocol:
(§3)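 Broth microdilution against gonococcal strains expressing mosaic PBP2, starting inoculum 5×10^5 CFU/mL in Fastidious broth. Incubation runs ~24 h at 36 °C under 5% CO2, with MIC scored visually at <10% of full growth.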

The next experiment relates to N. gonorrhoeae WHO G. The experiment is described as follows: Liquid broth MIC in Fastidious broth. Particulars: Neisseria gonorrhoeae; N. gonorrhoeae WHO G; Fastidious broth; read-out: Minimum Inhibitory Concentration, WHO G. The essentials:
as §2

For the next experiment, the system named is N. gonorrhoeae WHO K. Kind of experiment: Liquid broth MIC in Fastidious broth. Particulars: Neisseria gonorrhoeae, read-out: Minimum Inhibitory Concentration, WHO K. A digest of the protocol:
as §3

The next experiment concerns N. gonorrhoeae WHO L. The experiment is described as follows: Liquid broth MIC in Fastidious broth. Particulars: Neisseria gonorrhoeae; N. gonorrhoeae WHO L; Fastidious broth; read-out: Minimum Inhibitory Concentration, WHO L. A digest of the protocol: as §2
A further experiment has as its system N. gonorrhoeae WHO Q. Kind of experiment: Liquid broth MIC in Fastidious broth. Particulars: Neisseria gonorrhoeae, read-out: Minimum Inhibitory Concentration, WHO Q. A digest of the protocol:
as §3

Another experiment has as its system N. gonorrhoeae WHO Z. Kind of experiment: Liquid broth MIC in Fastidious broth. As to conditions: Neisseria gonorrhoeae, read-out: Minimum Inhibitory Concentration, WHO Z. A digest of the protocol: as §3

Converted amounts (≈) assume the structure as drawn.

With `CCN1CCN(C(=O)N[C@H](C(=O)N[C@H]2Cc3cccc(C(=O)O)c3OB2O)c2ccc(C(=O)O)c(F)c2Cl)C(=O)C1=O` (single isomer, unassigned) [Example 202], the MIC with A. baumannii ATCC 19606 is > 128 µg/mL; in the experiment on E. coli 901C it was 0.5 to 1 µg/mL (≈ 0.827 to 1.65 µM); in experiment [1] it was > 128 µg/mL; in experiment [2], > 128 µg/mL; with P. aeruginosa ATCC 35151 it was 2 to 4 µg/mL (≈ 3.31 to 6.61 µM); in experiment [3] it was 16 to 32 µg/mL (≈ 26.5 to 52.9 µM). Also, the MIC in the experiment with N. gonorrhoeae FA1090 was 4 to 8 µg/mL (≈ 6.61 to 13.2 µM); in the experiment on N. gonorrhoeae H041 it was > 64 µg/mL; in the experiment on N. gonorrhoeae WHO G, 16 to 32 µg/mL (≈ 26.5 to 52.9 µM); with N. gonorrhoeae WHO K it was > 64 µg/mL; with N. gonorrhoeae WHO L it was > 64 µg/mL; with N. gonorrhoeae WHO Q it was > 64 µg/mL. Also, the MIC in the experiment on N. gonorrhoeae WHO Z was in the range of 16 to 32 µg/mL (≈ 26.5 to 52.9 µM).
In the case of `CCN1CCN(C(=O)N[C@@H](C(=O)N[C@H]2Cc3cccc(C(=O)O)c3OB2O)c2ccc(C(=O)O)c(F)c2Cl)C(=O)C1=O` (single isomer, unassigned) [Example 203], the MIC with A. baumannii ATCC 19606 is > 128 µg/mL; with E. coli 901C, < 0.25 µg/mL; in experiment [1], 32 to 64 µg/mL (≈ 52.9 to 106 µM); in experiment [2], 8 to 16 µg/mL (≈ 13.2 to 26.5 µM); in the experiment with P. aeruginosa ATCC 35151, 0.5 to 1 µg/mL (≈ 0.827 to 1.65 µM); in [3] it was 4 to 8 µg/mL (≈ 6.61 to 13.2 µM). For the same molecule, the MIC was 0.25 to 0.5 µg/mL (≈ 0.413 to 0.827 µM) with N. gonorrhoeae FA1090; 16 to 32 µg/mL (≈ 26.5 to 52.9 µM) in the experiment with N. gonorrhoeae H041; 4 to 8 µg/mL (≈ 6.61 to 13.2 µM) in the experiment on N. gonorrhoeae WHO G; 16 to 32 µg/mL (≈ 26.5 to 52.9 µM) in the experiment on N. gonorrhoeae WHO K; > 64 µg/mL in the experiment with N. gonorrhoeae WHO L; 4 to 8 µg/mL (≈ 6.61 to 13.2 µM) in the experiment with N. gonorrhoeae WHO Q. Besides, the MIC in the experiment with N. gonorrhoeae WHO Z lay within 4 to 8 µg/mL (≈ 6.61 to 13.2 µM).
For `NCCN1CCN(C(=O)N[C@H](C(=O)N[C@H]2Cc3cccc(C(=O)O)c3OB2O)c2c(F)cccc2F)C(=O)C1=O` (single isomer, unassigned) [Example 204], the MIC with A. baumannii ATCC 19606 is > 128 µg/mL; in the experiment with E. coli 901C, 8 to 16 µg/mL (≈ 14.3 to 28.6 µM); in experiment [1] it was > 128 µg/mL; in experiment [2], > 128 µg/mL; in the experiment with P. aeruginosa ATCC 35151, 32 to 64 µg/mL (≈ 57.2 to 114 µM); in experiment [3] it was > 64 µg/mL. Besides, the MIC in the experiment on N. gonorrhoeae FA1090 was 16 to 32 µg/mL (≈ 28.6 to 57.2 µM); in the experiment on N. gonorrhoeae H041, > 64 µg/mL; in the experiment with N. gonorrhoeae WHO G, > 64 µg/mL; in the experiment with N. gonorrhoeae WHO K it was > 64 µg/mL; in the experiment on N. gonorrhoeae WHO L it was > 64 µg/mL; with N. gonorrhoeae WHO Q, > 64 µg/mL. Besides, the MIC in the experiment with N. gonorrhoeae WHO Z was > 64 µg/mL.
For `NCCN1CCN(C(=O)N[C@@H](C(=O)N[C@H]2Cc3cccc(C(=O)O)c3OB2O)c2c(F)cccc2Cl)C(=O)C1=O` (single isomer, unassigned) [Example 205], the MIC in the experiment on A. baumannii ATCC 19606 was > 128 µg/mL; in the experiment with E. coli 901C, 8 to 16 µg/mL (≈ 13.9 to 27.8 µM); in experiment [1] it was > 128 µg/mL; in [2], 32 to 64 µg/mL (≈ 55.6 to 111 µM); in the experiment with P. aeruginosa ATCC 35151, 8 to 16 µg/mL (≈ 13.9 to 27.8 µM); in experiment [3] it was > 64 µg/mL. For the same molecule, the MIC is 16 to 32 µg/mL (≈ 27.8 to 55.6 µM) in the experiment with N. gonorrhoeae FA1090; > 64 µg/mL in the experiment with N. gonorrhoeae H041; > 64 µg/mL in the experiment on N. gonorrhoeae WHO G; > 64 µg/mL with N. gonorrhoeae WHO K; > 64 µg/mL with N. gonorrhoeae WHO L; > 64 µg/mL in the experiment with N. gonorrhoeae WHO Q. In the experiment with N. gonorrhoeae WHO Z, the MIC is > 64 µg/mL.
For the molecule `NCCN1CCN(C(=O)N[C@H](C(=O)N[C@H]2Cc3cccc(C(=O)O)c3OB2O)c2c(F)cccc2Cl)C(=O)C1=O` (single isomer, unassigned) [Example 206], the MIC in the experiment on A. baumannii ATCC 19606 was > 128 µg/mL; in the experiment on E. coli 901C, 32 to 64 µg/mL (≈ 55.6 to 111 µM); in experiment [1], > 128 µg/mL; in experiment [2], > 128 µg/mL; with P. aeruginosa ATCC 35151, 32 to 64 µg/mL (≈ 55.6 to 111 µM); in [3], > 64 µg/mL. The MIC in the experiment on N. gonorrhoeae FA1090, with N. gonorrhoeae H041, in the experiment with N. gonorrhoeae WHO G, with N. gonorrhoeae WHO K, in the experiment on N. gonorrhoeae WHO L and in the experiment on N. gonorrhoeae WHO Q was > 64 µg/mL each time. In the experiment on N. gonorrhoeae WHO Z, the MIC is > 64 µg/mL.
